Patent publication US7153535B2, “Protein sweetener” (Wisconsin Alumni Research Foundation, priority 2002, dated 2006)

Key:
humans = test: human panel sweetness scoring on a labeled magnitude scale; assay type: in vivo; conditions: 100 ug/ml of the protein in water; monkey and human test panels
Protocol: (§1) To test the sweetness potency of SEQ ID NOS. 3 and 5, we tested the perception of sweetness using a concentration of 100 ug/ml of the protein in water. One test panel consisted of monkeys. The other test panel was of humans. The response measured in the monkeys was level of activity of taste nerve fibers during the stimulation of the tongue with different compounds being tested. Humans were requested to score the sweetness sensations of the stimuli with a magnitude labeled scale in accordance with the techniques of B. Green et al., 21 Chemical Senses 323 (1996) (e.g. barely detectable; weak; moderate; strong; very strong; strongest imaginable).

[1] = test system: taste fibers predominantly responsive to sweeteners (S fibers) in the Chorda Tympani (CT) nerves; test: taste nerve fiber recordings during stimulation of the tongue; assay type: in vivo; conditions: fiber nerve recordings from rhesus monkey Chorda Tympani nerves, FIG. 4
Protocol: as §1
We used rhesus monkey nerves as an animal model to test primate taste responses to sweet proteins. […] The triangle markings on FIG. 4 indicate exposure timing.

[2] = level of heat typically present during baking of foods; cited from earlier work

| Substance | sweetness relative to recombinantly produced wild type (des-pGlul) (humans) [times] | nerve response recording profile compared with sucrose [1] | stability to heat [2] |
| --- | --- | --- | --- |
| D29K: Brazzein variant in which the Asp at position 29 is replaced with Lys (DKCKKVYENYPVSKCQLANQCNYDCKLKKHARSGECFYDEKRNLQCICDYCEY) | 3 to 4 |  |  |
| Glu36Ala: comparative Brazzein variant with Glu at position 36 replaced by Ala (QDKCKKVYENYPVSKCQLANQCNYDCKLDKHARSGACFYDEKRNLQCICDYCEY; UniProt P56552 1-54, looked up, variant E36A) |  | more distinct |  |
| Brazzein: sweet protein; SEQ ID NO: 1 is natural Brazzein minus the beginning Glu, recombinantly produced wild type (DKCKKVYENYPVSKCQLANQCNYDCKLDKHARSGECFYDEKRNLQCICDYCEY; listed as Pentadiplandra brazzeana) |  | more distinct | stable |
| D29N: Brazzein variant in which the Asp at position 29 is replaced with Asn (DKCKKVYENYPVSKCQLANQCNYDCKLNKHARSGECFYDEKRNLQCICDYCEY) | 3 to 4 | remarkably close to that of sucrose |  |
